This note sets out measurements from patent US20110207119A1, “METHODS FOR PREDICTING A CANCER PATIENT'S RESPONSE TO SUNITINIB” (priority 2010, published 2011).

The test system of this experiment is primary breast carcinoma cultures. The experiment in a line: in vitro chemoresponse assay on primary breast carcinoma cultures (DAPI nuclei count, aAUC of dose response curve). It is filed as cell-based. Conditions: 39 primary breast cancer cultures, single agent, 10 doses 0.108-55.3 μM, 72 hours. The procedure:
After assay development, thirty-nine primary breast carcinoma cultures were treated with sunitinib at the doses shown in Table 1.
All specimens treated with the drug were confirmed to contain a majority of epithelial cells (>65%) via immunocytochemistry. A 10-dose range of drug concentrations was used to treat the cell line and breast specimens for 72 hours. After treatment, the cultures were fixed with ethanol, and stained with DAPI. Any cells remaining adherent after treatment were considered live, and the DAPI stained nuclei were counted. The resulting dose response curves were analyzed.
aAUC values were calculated, essentially as follows:
(Xi is the normalized cell count of dose i)

As for `CCN(CC)CCNC(=O)c1c(C)[nH]c(/C=C2\C(=O)Nc3ccc(F)cc32)c1C` [sunitinib, Sunitinib], the “share of breast specimens responsive to sunitinib (aAUC of ≦7.85)” value (3 of 39) came out at 7.6%. Moreover, the “share of breast specimens with intermediate response (aAUC of 7.85-9.22)” value (8 of 39) is reported as 20.5%. For the setting “28 of 39”, the “share of breast specimens non-responsive to the drug (aAUC of ≧9.22)” value worked out at 71.7%.
